Experimental data as given in the supplement of paper PMC10307832.

Columns and labels:
Test in all cases: relative viability (nuclei count vs DMSO), 5 days (fraction); higher = more cells survive
[1] = compound: CO[C@H]1C[C@@H]2CC[C@@H](C)[C@@](O)(O2)C(=O)C(=O)N2CCCC[C@H]2C(=O)O[C@H]([C@H](C)C[C@@H]2CC[C@@H](OCCO)[C@H](OC)C2)CC(=O)[C@H](C)/C=C(\C)[C@@H](O)[C@@H](OC)C(=O)[C@H](C)C[C@H](C)/C=C/C=C/C=C/1C [Everolimus] + CC(=O)c1c(C)c2cnc(Nc3ccc(N4CCNCC4)cn3)nc2n(C2CCCC2)c1=O [Palbociclib] (partner 0.5 µM)
Summary of the method: (§1)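 Each reported value is a median over duplicate plates. It expresses relative viability: treated-well nuclei count divided by vehicle-well nuclei count. Lung cancer cell lines in 1536-well plates were dosed by pin tool a day after seeding, alone with one drug or with a fixed anchor-drug dose plus five library-drug doses (not always all listed) in √10 steps, and nuclei were counted after 5 days.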

[2] = compound: CO[C@H]1C[C@@H]2CC[C@@H](C)[C@@](O)(O2)C(=O)C(=O)N2CCCC[C@H]2C(=O)O[C@H]([C@H](C)C[C@@H]2CC[C@@H](OCCO)[C@H](OC)C2)CC(=O)[C@H](C)/C=C(\C)[C@@H](O)[C@@H](OC)C(=O)[C@H](C)C[C@H](C)/C=C/C=C/C=C/1C [Everolimus] + CC(C)C[C@H](NC(=O)[C@H](Cc1ccccc1)NC(=O)c1cnccn1)B(O)O [Bortezomib] (partner 0.002 µM)
Summary of the method: as §1

[3] = compound: CO[C@H]1C[C@@H]2CC[C@@H](C)[C@@](O)(O2)C(=O)C(=O)N2CCCC[C@H]2C(=O)O[C@H]([C@H](C)C[C@@H]2CC[C@@H](OCCO)[C@H](OC)C2)CC(=O)[C@H](C)/C=C(\C)[C@@H](O)[C@@H](OC)C(=O)[C@H](C)C[C@H](C)/C=C/C=C/C=C/1C [Everolimus] + COc1cc2c(Oc3ccc(NC(=O)C4(C(=O)Nc5ccc(F)cc5)CC4)cc3F)ccnc2cc1OCCCN1CCOCC1 [Foretinib] (partner 0.25 µM)
Summary of the method: as §1

[4] = compound: CO[C@H]1C[C@@H]2CC[C@@H](C)[C@@](O)(O2)C(=O)C(=O)N2CCCC[C@H]2C(=O)O[C@H]([C@H](C)C[C@@H]2CC[C@@H](OCCO)[C@H](OC)C2)CC(=O)[C@H](C)/C=C(\C)[C@@H](O)[C@@H](OC)C(=O)[C@H](C)C[C@H](C)/C=C/C=C/C=C/1C [Everolimus] + CS(=O)(=O)N1CCN(Cc2cc3nc(-c4cccc5[nH]ncc45)nc(N4CCOCC4)c3s2)CC1 [Pictilisib] (partner 1 µM)
Summary of the method: as §1

Cell Line | relative viability ([1]; first compound 0.01 µM) | relative viability ([1]; first compound 0.03162 µM) | relative viability ([1]; first compound 0.1 µM) | relative viability ([1]; first compound 0.3162 µM) | relative viability ([1]; first compound 1 µM) | relative viability ([2]; first compound 0.01 µM) | relative viability ([2]; first compound 0.03162 µM) | relative viability ([2]; first compound 0.1 µM) | relative viability ([2]; first compound 0.3162 µM) | relative viability ([2]; first compound 1 µM) | relative viability ([3]; first compound 0.01 µM) | relative viability ([3]; first compound 0.03162 µM) | relative viability ([3]; first compound 0.1 µM) | relative viability ([3]; first compound 0.3162 µM) | relative viability ([3]; first compound 1 µM) | relative viability ([4]; first compound 0.01 µM) | relative viability ([4]; first compound 0.03162 µM) | relative viability ([4]; first compound 0.1 µM) | relative viability ([4]; first compound 0.3162 µM) | relative viability ([4]; first compound 1 µM)
H3255 | 0.314 | 0.294 | 0.319 | 0.322 | 0.307 | 0.518 | 0.458 | 0.359 | 0.394 | 0.44 | 0.572 | 0.621 | 0.458 | 0.294 | 0.565 | 0.35 | 0.332 | 0.302 | 0.294 | 0.281
HARA | 0.242 | 0.189 | 0.218 | 0.241 | 0.169 | 1.07 | 1.14 | 0.904 | 1.11 | 1.01 | 0.754 | 0.847 |  | 0.793 | 0.845 | 0.236 | 0.278 | 0.227 | 0.228 | 0.238
HCC-44 | 1.01 | 1 | 0.997 | 1.07 | 1.1 | 0.978 | 0.958 | 0.937 | 1.08 | 0.858 |  |  |  |  |  | 0.429 | 0.427 | 0.309 | 0.55 | 0.323
IA-LM |  |  |  |  |  | 0.209 | 0.255 | 0.305 | 0.439 | 0.405 | 0.927 | 0.547 | 0.476 | 0.595 | 0.42 | 0.211 | 0.162 | 0.137 | 0.158 | 0.104
LK-2 | 0.536 | 0.312 | 0.321 | 0.314 | 0.33 |  |  |  |  |  | 0.638 |  | 0.583 | 0.656 | 0.679 | 0.5 |  | 0.37 | 0.322 | 0.386
NCI-H358 | 0.136 | 0.15 | 0.129 | 0.11 | 0.128 |  |  |  |  |  | 0.432 | 0.45 | 0.496 | 0.388 | 0.432 | 0.257 | 0.241 | 0.213 | 0.257 | 0.213
NCI-H522 | 0.793 | 0.701 | 0.62 | 0.603 | 0.597 |  |  |  |  |  |  |  |  |  |  |  |  |  |  | 
NCI-H596 |  |  |  |  |  | 0.813 | 0.716 | 0.658 | 0.612 | 0.589 | 0.435 | 0.494 | 0.512 | 0.442 | 0.477 | 0.313 | 0.337 | 0.348 | 0.354 | 0.333
NCI-H1299 |  |  |  |  |  | 1.04 | 1.08 | 1.02 | 1.07 | 1.1 | 1.06 | 1.21 | 0.634 | 1.07 | 1.05 | 0.54 | 0.537 | 0.512 | 0.386 | 0.528
